Results reported in patent EP4043466B1, “PRC2 INHIBITORS” (Mirati Therapeutics, Inc., priority 2018, dated 2019).

How the values were obtained:
Karpas 422 cells = assay: Karpas 422 cell viability, CTG (Cell Titre Glo) assay; type: cell-based, human; conditions: Inhibition of proliferation of Karpas 422 cells (EZH2 Y641N), viability measured Day 4, Day 7 or Day 11, time point of the tabulated values not stated
Outline: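 CellTiter-Glo viability IC50s taken at Day 4, Day 7 and Day 11 of continuous compound exposure (3-fold series, 10µM top, 1.5nM lowest) in RPMI/20% FBS at 37 °C. Y641N-mutant EZH2 lymphoma line seeded at 1000 cells per well; medium and compound replaced on Day 7 for Day 11 read.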

[1] = tested on: PRC2-mediated histone H3 methylation; assay: Tri-Methyl Histone H3 (Lys 27) Sandwich ELISA in Pfeiffer cells: inhibition of PRC2-mediated histone H3 methylation; type: cell-based, human; conditions: Inhibition of EZH2-mediated histone H3 trimethylation, Pfeiffer cells (EZH2 A677G), 96 hours incubation
Description: The Pfeiffer cell line was established from a […] from a patient having metastatic diffuse large B-cell lymphoma (DLBCL). This cell line expresses a mutant form of the EZH2 enzyme (A677G) that results in enhanced EZH2 activity leading to increased methylation of histone H3 Lys27. Increased trimethylation of histone H3 Lys27 is believed to be implicated in tumorgenesis and poor clinical prognosis in lymphomas (McCabe et al., (2012) Nature 492:108-112).
Inhibition of PRC2-mediated histone H3 methylation by compounds of Formula (I) was measured by ELISA using a Tri-Methyl Histone H3 (Lys 27) Sandwich ELISA Kit (Cell Signaling Tech #7866C) in accordance with the manufacturer's instructions. Briefly, Pfeiffer cells were cultured in RPMI medium supplemented with 10% fetal bovine serum and 1% penicillin and 1% streptomycin in 96 well culture plates at 37°C to a density of 8000 cells/90µl/well and the cells were harvested. A series of 3-fold serial dilutions of each test compound of Formula (I) were prepared in RPMI medium and added to the cells at final concentrations ranging from 1µM to 0.15 nM. The plates were incubated at 37°C for 96 hours.
After incubation, the cells were pelleted by centrifugation in a pre-cooled 4°C rotor at 1, 100 rpm for 10 min and the supernatant was removed by aspiration. The cell pellet was resuspended in 55µl of Lysis Buffer (0.4M HCl) and incubated on ice with periodic shaking for 30 minutes. The lysed cells were subjected to centrifugation at 4, 200 rpm for 10 min at 4°C and the supernatant containing acid-soluble proteins was collected and the remainder discarded. The acid-soluble proteins were brought to a neutral pH by the addition of 20 µl of Neutralization Buffer (1 M Sodium phosphate, dibasic (pH 12.5), 2.5 mM DTT and 1 mM PMSF) and the neutralized lysates were analyzed by ELISA.
A 65 µl aliquot of each cell lysate was added to a well of a microwell strip, the microwells were sealed using tape and incubated either at 37°C for two hours or at 4°C overnight. After incubation, the tape was removed at the microwells were washed four times using 200 µl of 1X Wash Buffer. To each washed microwell, a 100 µl aliquot of an antitrimethyl histone H3 Lys27 Detection Antibody solution was added and the microwells were incubated at 37°C for one hour. The Detection Antibody solution was removed by aspiration and the wells were washed four times each using 200 µl of 1X Wash Buffer.
A 100 µl aliquot of an HRP-linked secondary antibody was added to each well, the wells were sealed with tape and incubated at 37°C for 30 min. The HRP-linked secondary antibody solution was removed by aspiration and the wells were washed four times using 200 µl of 1X Wash Buffer. A 100 µl aliquot of a TMB substrate was added to each well, the wells were sealed with tape and incubated at 37°C for 10 min or 25°C for 30 min. The reaction was stopped by the addition of 100 µl aliquot of a STOP solution and the plate was shaken briefly. The degree of histone H3 trimethylation was determined using a spectrophotometric readout by measuring the absorbance at 450 nm and then calculating the amount of trimethylated histone H3. A = ≤100 nM; B = >100 nM - ≤500 nM; C = >500 nM and N.D. = not determined.

[2] = biological target: purified human, His-tagged PRC2 complex (Homo sapiens, UniProt O75530+Q15910); assay: Hot Spot HMT assay: inhibition of PRC2 enzymatic activity (transfer of tritiated methyl from SAM to core histone, filter binding); type: biochemical; conditions: Inhibition of PRC2-mediated enzymatic activity; 10 nM PRC2 complex, 0.05 mg/ml core histone H3, 1 uM 3H-SAM, 1 hr at 30°C
Outline: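 Serial compound dilutions starting at 1.0 µM were pre-incubated 20 min at 30°C with 10 nM complex (His-EZH2, Flag-EED, His-SUZ12, His-AEBP2, His-RbAp48) and 0.05 mg/ml core H3. Reaction ran 1 hr at 30°C after adding 1 uM [3H]-SAM; scintillation counting followed filtration.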

purified human, His-tagged PRC2 complex, sequence (Q15910 whole entry): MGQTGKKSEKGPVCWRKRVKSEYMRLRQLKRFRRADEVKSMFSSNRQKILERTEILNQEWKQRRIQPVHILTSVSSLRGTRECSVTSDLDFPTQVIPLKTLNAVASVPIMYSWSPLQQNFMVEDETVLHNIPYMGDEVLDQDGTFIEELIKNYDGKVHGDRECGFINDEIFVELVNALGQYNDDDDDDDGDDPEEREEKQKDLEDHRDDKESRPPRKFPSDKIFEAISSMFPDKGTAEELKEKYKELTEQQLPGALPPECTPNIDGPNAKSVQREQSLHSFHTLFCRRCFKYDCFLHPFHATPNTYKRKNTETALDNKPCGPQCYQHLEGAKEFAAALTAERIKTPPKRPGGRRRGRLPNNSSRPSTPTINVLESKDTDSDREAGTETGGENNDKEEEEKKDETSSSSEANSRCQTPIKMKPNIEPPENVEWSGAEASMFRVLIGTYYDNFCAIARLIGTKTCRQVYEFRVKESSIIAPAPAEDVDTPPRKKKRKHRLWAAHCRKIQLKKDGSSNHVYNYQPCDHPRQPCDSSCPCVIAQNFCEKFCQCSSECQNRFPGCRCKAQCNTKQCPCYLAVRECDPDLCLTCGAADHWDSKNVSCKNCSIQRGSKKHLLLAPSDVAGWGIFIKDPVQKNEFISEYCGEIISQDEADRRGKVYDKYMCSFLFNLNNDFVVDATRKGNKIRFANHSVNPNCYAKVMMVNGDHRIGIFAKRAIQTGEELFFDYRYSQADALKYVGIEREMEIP
purified human, His-tagged PRC2 complex, sequence (O75530 whole entry): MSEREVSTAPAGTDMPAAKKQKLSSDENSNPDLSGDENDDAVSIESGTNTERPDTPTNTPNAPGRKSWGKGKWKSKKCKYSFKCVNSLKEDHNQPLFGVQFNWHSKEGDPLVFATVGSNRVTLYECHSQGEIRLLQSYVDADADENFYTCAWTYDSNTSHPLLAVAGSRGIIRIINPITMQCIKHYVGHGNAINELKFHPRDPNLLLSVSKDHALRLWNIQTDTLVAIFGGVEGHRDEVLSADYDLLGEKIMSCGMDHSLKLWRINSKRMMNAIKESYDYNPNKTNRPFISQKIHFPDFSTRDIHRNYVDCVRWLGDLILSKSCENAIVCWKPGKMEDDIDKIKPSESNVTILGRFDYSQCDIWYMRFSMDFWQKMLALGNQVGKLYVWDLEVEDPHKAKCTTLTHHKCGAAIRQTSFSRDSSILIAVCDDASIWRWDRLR
purified human, His-tagged PRC2 complex, sequence (Q15022 whole entry partner): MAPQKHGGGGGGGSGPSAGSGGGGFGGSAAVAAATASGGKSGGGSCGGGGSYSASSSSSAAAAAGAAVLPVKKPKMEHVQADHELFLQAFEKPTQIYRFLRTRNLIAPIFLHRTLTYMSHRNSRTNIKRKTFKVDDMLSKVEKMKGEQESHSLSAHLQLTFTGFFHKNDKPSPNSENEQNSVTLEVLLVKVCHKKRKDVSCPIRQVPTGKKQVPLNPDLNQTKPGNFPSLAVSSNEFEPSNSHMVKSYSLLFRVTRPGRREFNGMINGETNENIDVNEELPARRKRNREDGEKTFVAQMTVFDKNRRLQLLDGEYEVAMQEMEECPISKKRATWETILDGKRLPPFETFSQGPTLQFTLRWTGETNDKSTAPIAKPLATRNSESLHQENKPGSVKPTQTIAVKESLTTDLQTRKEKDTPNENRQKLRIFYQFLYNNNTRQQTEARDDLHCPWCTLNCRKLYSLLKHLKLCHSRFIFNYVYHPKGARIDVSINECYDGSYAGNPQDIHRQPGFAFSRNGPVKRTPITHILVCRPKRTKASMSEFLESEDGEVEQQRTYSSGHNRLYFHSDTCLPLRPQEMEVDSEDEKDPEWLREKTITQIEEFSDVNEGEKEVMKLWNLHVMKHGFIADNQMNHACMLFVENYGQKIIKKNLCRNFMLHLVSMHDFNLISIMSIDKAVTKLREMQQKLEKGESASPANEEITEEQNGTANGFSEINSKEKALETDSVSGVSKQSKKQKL
purified human, His-tagged PRC2 complex, sequence (Q6ZN18 whole entry partner): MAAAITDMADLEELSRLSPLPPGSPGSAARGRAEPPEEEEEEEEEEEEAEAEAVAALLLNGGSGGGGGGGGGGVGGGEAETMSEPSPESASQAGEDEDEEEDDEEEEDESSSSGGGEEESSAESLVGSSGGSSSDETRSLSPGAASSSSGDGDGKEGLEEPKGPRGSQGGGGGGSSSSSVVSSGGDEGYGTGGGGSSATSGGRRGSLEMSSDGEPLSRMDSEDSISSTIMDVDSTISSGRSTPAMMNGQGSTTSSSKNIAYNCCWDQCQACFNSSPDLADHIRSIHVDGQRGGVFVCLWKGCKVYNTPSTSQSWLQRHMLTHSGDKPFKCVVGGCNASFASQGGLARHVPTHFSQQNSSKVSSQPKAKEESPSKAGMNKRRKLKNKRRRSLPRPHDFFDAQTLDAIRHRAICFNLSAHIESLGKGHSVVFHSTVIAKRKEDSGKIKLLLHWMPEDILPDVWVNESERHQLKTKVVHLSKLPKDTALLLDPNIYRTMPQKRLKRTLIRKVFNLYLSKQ
purified human, His-tagged PRC2 complex, sequence (Q09028 whole entry partner): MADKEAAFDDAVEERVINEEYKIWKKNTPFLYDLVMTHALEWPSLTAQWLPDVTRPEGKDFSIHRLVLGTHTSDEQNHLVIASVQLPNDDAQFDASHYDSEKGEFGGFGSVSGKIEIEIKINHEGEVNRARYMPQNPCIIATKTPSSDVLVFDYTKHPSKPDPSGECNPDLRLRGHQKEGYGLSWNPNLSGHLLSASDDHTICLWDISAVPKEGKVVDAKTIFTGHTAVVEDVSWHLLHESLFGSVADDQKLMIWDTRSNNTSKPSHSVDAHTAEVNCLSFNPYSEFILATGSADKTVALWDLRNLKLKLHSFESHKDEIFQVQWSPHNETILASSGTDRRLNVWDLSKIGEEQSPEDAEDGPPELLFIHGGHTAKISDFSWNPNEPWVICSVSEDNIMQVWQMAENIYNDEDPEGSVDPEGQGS

Row | SMILES | IC50 (Karpas 422 cells; Homo sapiens) | IC50 ([1]; Homo sapiens) | IC50 [2] | IC50 (Karpas 422 cells) | IC50 [1]
1 | COC(=O)c1cc(-c2cnc(NCc3c(F)ccc4c3CCO4)n3cc(C#N)nc23)n(C)n1 [Example 169, methyl 5-(2-cyano-5-(((5-fluoro-2,3-dihydrobenzofuran-4-yl)methyl)amino)imidazo[1,2-c]pyrimidin-8-yl)-1-methyl-1H-pyrazole-3-carboxylate] | ≤ 250 nM | 100 to 500 nM | < 100 nM | – | –
2 | [2H]C([2H])([2H])N(Cc1ccc(-c2cnc(NCc3c(F)ccc4c3CCO4)n3cc(C#N)nc23)c(C)c1)C([2H])([2H])[2H] [Example 202, 8-(4-((bis(methyl-d3)amino)methyl)-2-methylphenyl)-5-(((5-fluoro-2,3-dlhydrobenzofuran-4-yl)methyl)amino)imidazo[1,2-c]pyrimidine-2-carbonitrile] | ≤ 250 nM | ≤ 100 nM | < 100 nM | – | –
3 | Cc1nc(CN(C)C)ccc1-c1cnc(NCc2c(F)ccc3c2CCO3)n2cc(C#N)nc12 [Example 152, 8-(6-((dimethylamino)methyl)-2-methylpyridin-3-yl)-5-(((5-fluoro-2,3-dihydrobenzofuran-4-yl)methyl)amino)imidazo[1,2-c]pyrimidine-2-carbonitrile] | ≤ 250 nM | 100 to 500 nM | 100 to 500 nM | – | –
4 | Cc1ccc(-c2cnc(NCc3c(F)ccc4c3CCO4)n3cc(C#N)nc23)c(C)c1 [Example 192, 8-(2,4-dimethylphenyl)-5-(((5-fluoro-2,3-dihydrobenzofuran-4-yl)methyl)amino)imidazo[1,2-c]pyrimidine-2-carbonitrile] | > 500 nM | > 500 nM | > 500 nM | – | –
5 | Cc1cc(C2CCCN2)ccc1-c1cnc(NCc2c(F)ccc3c2CCO3)n2cc(C#N)nc12 (single isomer, unassigned) [Example 214, 5-(((5-fluoro-2,3-dihydrobenzofuran-4-yl)methyl)amino)-8-(2-methyl-4-(pyrrolidin-2-yl)phenyl)imidazo[1,2-c]pyrimidine-2-carbonitrile] | – | – | < 100 nM | ≤ 250 nM | 100 to 500 nM
6 | [2H]C([2H])(c1ccc(-c2cnc(NCc3c(F)ccc4c3CCO4)n3cc(C#N)nc23)c(C)c1)N(C)C [Example 173, 8-(4-((dimethylamino)methyl-d2)-2-methylphenyl)-5-(((5-fluoro-2,3-dihydrobenzofuran-4-yl)methyl)amino)imidazo[1,2-c]pyrimidine-2-carbonitrile] | ≤ 250 nM | ≤ 100 nM | < 100 nM | – | –
7 | N#Cc1cn2c(NCc3c(F)ccc4c3CCO4)ncc(-c3ccncn3)c2n1 [Example 57, 5-(((5-fluoro-2,3-dihydrobenzofuran-4-yl)methyl)amino)-8-(pyrimidin-4-yl)imidazo[1,2-c]pyrimidine-2-carbonitrile] | ≤ 250 nM | 100 to 500 nM | < 100 nM | – | –
8 | Cc1ncc(-c2cnc(NCc3c(F)ccc4c3CCO4)n3cc(C#N)nc23)c(C)n1 [Example 71, 8-(2,4-dimethylpyrimidin-5-yl)-5-(((5-fluoro-2,3-dihydrobenzofuran-4-yl)methyl)amino)imidazo[1,2-c]pyrimidine-2-carbonitrile] | ≤ 250 nM | 100 to 500 nM | < 100 nM | – | –
9 | CN(C)C1(c2ccc(-c3cnc(NCc4c(F)ccc5c4CCO5)n4cc(C#N)nc34)cc2)CC1 [Example 171, 8-(4-(1-(dimethylamino)cyclopropyl)phenyl)-5-(((5-fluoro-2,3-dihydrobenzofuran-4-yl)methyl)amino)imidazo[1,2-c]pyrimidine-2-carbonitrile] | ≤ 250 nM | 100 to 500 nM | < 100 nM | – | –

Now from value to molecule, other results behind:

Row | IC50 (Karpas 422 cells; Homo sapiens) | IC50 ([1]; Homo sapiens) | IC50 [2] | SMILES | IC50 (Karpas 422 cells) | IC50 [1]
10 | ≤ 250 nM | ≤ 100 nM | < 100 nM | N#Cc1cn2c(NCc3c(F)ccc4c3CCO4)ncc(-c3ccc(C4CC(=O)N4)cc3)c2n1 (stereo not drawn) [Example 222, 5-(((5-fluoro-2,3-dihydrobenzofuran-4-yl)methyl)amino)-8-(4-(4-oxoazetidin-2-yl)phenyl)imidazo[1,2-c]pyrimidine-2-carbonitrile] | – | –
11 | ≤ 250 nM | ≤ 100 nM | < 100 nM | Cc1c(-c2cnc(NCc3c(F)ccc4c3CCO4)n3cc(C#N)nc23)ccc(CN(C)C)c1F [Example 85, 8-(4-((dimethylamino)methyl)-3-fluoro-2-methylphenyl)-5-(((5-fluoro-2,3-dihydrobenzofuran-4-yl)methyl)amino)imidazo[1,2-c]pyrimidine-2-carbonitrile] | – | –
12 | 250 to 500 nM | 100 to 500 nM | 100 to 500 nM | COCCOc1ccc(-c2cnc(NCc3c(F)ccc4c3CCO4)n3cc(C#N)nc23)cn1 [Example 158, 5-(((5-fluoro-2,3-dihydrobenzofuran-4-yl)methyl)amino)-8-(6-(2-methoxyethoxy)pyridin-3-yl)imidazo[1,2-c]pyrimidine-2-carbonitrile] | – | –
13 | ≤ 250 nM | 100 to 500 nM | < 100 nM | [2H]C1Oc2ccc(F)c(C([2H])([2H])Nc3ncc(-c4ccc(CN(C)C)cc4C)c4nc(C#N)cn34)c2C1[2H] (stereo not drawn) [Example 223, 8-(4-((dimethylamino)methyl)-2-methylphenyl)-5-(((5-fluoro-2,3-dihydrobenzofuran-4-yl-2,3-d2)methyl-d2)amino)imidazo[1,2-c]pyrimidine-2-carbonitrile] | – | –
14 | 250 to 500 nM | > 500 nM | < 100 nM | COC(=O)c1ccc(-c2cnc(NCc3c(F)ccc4c3CCO4)n3cc(C#N)nc23)cn1 [Example 166, methyl 5-(2-cyano-5-(((5-fluoro-2,3-dihydrobenzofuran-4-yl)methyl)amino)imidazo[1,2-c]pyrimidin-8-yl)picolinate] | – | –
15 | > 500 nM | > 500 nM | < 100 nM | N#Cc1cn2c(NCc3c(F)ccc4c3CCO4)ncc(-c3ccc(C(=O)O)cc3)c2n1 [Example 183, 4-(2-cyano-5-(((5-fluoro-2,3-dihydrobenzofuran-4-yl)methyl)amino)imidazo[1,2-c]pyrimidin-8-yl)benzoic acid] | – | –
16 | ≤ 250 nM | ≤ 100 nM | < 100 nM | CN(C)Cc1ccc(-c2cnc(NCc3c(F)ccc4c3CCO4)n3cc(C#N)nc23)c(F)c1 [Example 61, 8-(4-((dimethylamino)methyl)-2-fluorophenyl)-5-(((5-fluoro-2,3-dihydrobenzofuran-4-yl)methyl)amino)imidazo[1,2-c]pyrimidine-2-carbonitrile] | – | –
17 | ≤ 250 nM | ≤ 100 nM | < 100 nM | CN(C)C(=O)c1cc(-c2cnc(NCc3c(F)ccc4c3CCO4)n3cc(C#N)nc23)n(C)n1 [Example 170, 5-(2-cyano-5-(((5-fluoro-2,3-dihydrobenzofuran-4-yl)methyl)amino)imidazo[1,2-c]pyrimidin-8-yl)-N,N,1-trimethyl-1H-pyrazole-3-carboxamide] | – | –
